Earlier results in US20160143979A1, “Long Pepper Extract an Effective Anticancer Treatment” (priority 2014, published 2016).

Test system: cancer cells
Conditions: previous study

COc1cc(/C=C/C(=O)N2CCC=CC2=O)cc(OC)c1OC [piperlongumine]
concentration required for significant cell death induction: 10
